Converted amounts (≈) assume the structure as drawn. “Also recorded” adds a separate entry of the source.
Key:
[1] = test system: lipoprotein lipase (LPL) of 3T3-L1 cells; test: Recovery effect on cachectin/TNF-induced reduction of lipoprotein lipase (LPL) in adipocytes; type: cell-based
Description: (§1) 3T3-L1 cells (5×10^4 cells per well) were cultivated in wells of 48-well test plate for about one week until the cell growth reached became confluent. Test drug and 4×10^-10 ^- 10 g/ml (32 unit/ml as TNF activity) of recombinant human TNF (rHu-TNF) were added, and the cultivation was further continued.
(§2) After 20 hours, the test drug and rHu-TNF were removed. Then 10 unit/ml of heparin was added, and after 90 min., activity of lipoprotein lipase (LPL) isolated from 3T3-L1 cell by heparin was measured according to the method as described in Nelsson-Ehle, P., et al., J. Lipid Res., 17, 536 (1976).
(§3) On the LPL activity measured, the recovery on the reduction of lipoprotein lipase production was calculated by the following formula: [formula]
(§4) ^1 The experiment was performed in the presence of rHu TNF (32

L 929 cells = test: Effect on cytotoxic activity of TNF; type: cell-based
Description: L 929 cells (10^4 cells/well) was cultivated on a test plate having 96 wells, and after 24 hours, a test drug and recombinant human-tumor necrosis factor (rHu - TNF) were added thereto such that rHu - TNF became 2.5×10^-11 g/ml (TNF activity of 2 unit/ml), and then, after 24 hours, the number of living cells was measured.
The effect of test drug on the cytotoxicity of TNF was calculated according to the above-mentioned formula (A) and shown by "%" value.
^1 The experiments were effected in the presence of TNF (2 units/ml)

BDF1 mouse = test: Acute toxicity, i.p. injection in BDF1 mouse; type: in vivo
Description: (§5) A test drug was injected into the peritoneal cavity of BDF1 mouse (5 weeks old, female) to measure 50% lethal dose (LD50).

L 929 cell = test: Cytotoxicity, 50% growth inhibition of L 929 cell; type: cell-based
Description: (§6) B-16 melanoma cell, P388 leukemia cell or L 929 cell was cultivated together with a prescribed amount of a test drug on a 24-well or 96-well test plate and the number of living cells was measured one day or 3 days later to know the 50% growth inhibition concentration.

Solubility = type: physicochemical
Stability = type: physicochemical
Acid or base = type: physicochemical
B-16 melanoma cell = test: Cytotoxicity, 50% growth inhibition of B-16 melanoma cell; type: cell-based
Description: as §6

[2] = Recovery effect on cachectin/TNF-induced reduction of lipoprotein lipase (LPL) in adipocytes; type: cell-based; settings: mouse, 3t3-l1 cells; read-out: Concentration at which OK exhibits cytotoxicity
Description: as §1, §2, §3, §4

P388 leukemia cell = test: Cytotoxicity, 50% growth inhibition of P388 leukemia cell; type: cell-based; settings: Mus musculus, read-out: 50% growth inhibition concentration (IC50)
Description: as §6

[3] = Acute toxicity, i.p. injection in BDF1 mouse; type: in vivo; settings: in vivo, ip, 5 weeks old, female, intraperitoneal, read-out: 50% Lethal dose (LD50)
Description: as §5

Compound | Recovery of LPL generation in adipocytes (in words) [1] | Concentration with effect of recovering from the lowering of production of lipoprotein lipase ([1]; 3T3-L1 cells with rHu-TNF) [µg/mL] | Effect on cytolytic activity of TNF (in words) (L 929 cells) | Toxicity (in words) (BDF1 mouse) | 50% Lethal dose (LD50) (BDF1 mouse; 5 weeks old, female, intraperitoneal) [mg/kg] | LD50 of GOK relative to that of OK (BDF1 mouse; intraperitoneal) [times] | 50% growth inhibition concentration (IC50) (L 929 cell) [µg/mL] | Solubility (Solubility; acetone or chloroform) | Solubility (Solubility; methanol, ethanol or pyridine) | Stability (Stability; acid) | Stability (Stability; alkali) | Acid or base (Acid or base) | 50% growth inhibition concentration (IC50) (B-16 melanoma cell; B-16 melanoma, cultivated for one day) [µg/mL] | Cytotoxicity compared with OK (B-16 melanoma cell; all cell species of Table 1) | MCC [2] [µg/mL] | Effect on lowered LPL production (in words) ([1]; OK, even at 0.1 μg/ml) | IC50 (P388 leukemia cell) [µg/mL] | LD50 [3] [mg/kg] | IC50 (L 929 cell; Mus musculus, L929, read-out: 50% growth inhibition concentration (IC50)) [µg/mL] | IC50 (B-16 melanoma cell; Mus musculus, B16, 24 h, B-16 melanoma, cultivated for one day, read-out: 50% growth inhibition concentration (IC50)) [µg/mL]
glycookadaic acid [GOK] | specifically recovers the lowering effect on the generation of lipoprotein lipase in adipocytes | 3 to 10 | Neither GOK nor OK affected the cytolytic activity of TNF; also recorded: does not suppress the cytotoxic activity of cachectin/TNF toward cancer cells | toxicity of GOK is low; also recorded: far safer drug than OK | > 16 | ≥ 100 | 28 | Insoluble or sparsely soluble | Easily soluble | Unstable to acid | Relatively stable to alkali | Weekly acidic substance | 19 | much weaker than that of OK | – | – | – | – | – | –
C=C1C(O)C2OC3(CCC(C=CC(C)C4CC(C)=CC5(OC(CC(C)(O)C(=O)O)CCC5O)O4)O3)CCC2OC1C(O)CC(C)C1OC2(CCCCO2)CCC1C (stereo not drawn) [OK, okadaic acid] | – | – | Neither GOK nor OK affected the cytolytic activity of TNF | – | – | – | – | – | – | – | – | – | – | – | 0.1 | did not exhibit the effect of inhibition | 0.024 (≈ 0.0298 µM) | 0.16 | 0.084 (≈ 0.104 µM) | 0.018 (≈ 0.0224 µM)

From patent publication US4835176A, “Glycookadaic acid, preparation thereof and use thereof” (priority 1987, dated 1989)
